Tested on: pulmonary artery smooth muscle cells (PASMC)
Test: PASMC cellular metabolism (alamarBlue assay)
Assay type: cell-based, lamb
Conditions: WT-PKG-1α transfected PASMC; SIN-1 500 μM, 48 h
Protocol: This was determined via the alamarBlue assay (AbD Serotec, Oxford, UK). The assay is based on the reducing ability of metabolically active cells to convert the active reagent, resazurin, into a fluorescent and colorimetric indicator, resorufin. When added to cell cultures, the oxidized, resazurin enters the cytosol and is converted to the reduced, resorufin in the mitochondria by accepting electrons from NADH, NADPH, FADH2, FMNH2, as well as from the cytochromes. The non-toxic and cell permeable nature of alamarBlue permits the long-term exposure of cells. PASMC were grown on a 10 cm dish to 75% confluence, transfected with WT-PKG-1α or Y247F-PKG-1α cDNA, and incubated at 37° C. for 20 h. The cells were trypsinized and seeded onto a 24-well plate at a density of 20,000 cells per well and grown for an additional 4 h in serum and phenol free DMEM growth medium containing 1% FBS and antibiotics. The cells were then treated with or without SIN-1 (500 μM, 48 h) in the presence of 10% well volume of alamarBlue dye. The color change of the dye was determined at an excitation wavelength of 560 nm and an emission wavelength of 590 nm in a Fluoroskan Ascent plate reader. […] Cellular metabolism was expressed as follows: […]

How did the metabolism turn out when “3-morpholinosydnonimine N-ethylcarbamide [SIN-1]” was run?
The metabolism was “stimulated”.
